Assay results: ChEMBL document CHEMBL1255264, “Mechanism-based pharmacokinetic-pharmacodynamic models of in vitro fungistatic and fungicidal effects against Candida albicans” (Antimicrob Agents Chemother, 2008)
Values after ≈ are worked out from the molar mass of the structure shown.

Tests used:
Candida albicans [1] = test: Antifungal activity against Candida albicans ATCC 3153 in vitro pharmacokinetic-pharmacodynamic model; type: functional, organism-based
Candida albicans [2] = test: Antifungal activity against Candida albicans ATCC 3153 after 48 hrs; type: functional; details: ATCC 3153, 48 h
Candida albicans [3] = test: Antifungal activity against Candida albicans ATCC 3153 assessed as death stimulation in vitro pharmacokinetic-pharmacodynamic model; type: functional, organism-based
Candida albicans [4] = test: Antifungal activity against Candida albicans ATCC 3153 assessed as maximum killing rate in vitro pharmacokinetic-pharmacodynamic model; type: functional

SMILES | IC50 (Candida albicans [1]) [µg/mL] | MIC (Candida albicans [2]) [µg/mL] | EC50 (Candida albicans [3]) [µg/mL] | Emax (Candida albicans [4]) [×10⁻¹ /hr]
OC(Cn1cncn1)(Cn1cncn1)c1ccc(F)cc1F [FLUCONAZOLE] | 0.0929 (≈ 0.303 µM) | – | – | –
CC[C@H](C)C[C@H](C)CCCCCCCCC(=O)N[C@H]1C[C@@H](O)[C@@H](NCCN)NC(=O)[C@@H]2[C@@H](O)CCN2C(=O)[C@H]([C@H](O)CCN)NC(=O)[C@H]([C@H](O)[C@@H](O)c2ccc(O)cc2)NC(=O)[C@@H]2C[C@@H](O)CN2C(=O)[C@H]([C@@H](C)O)NC1=O [CASPOFUNGIN] | – | 0.015 (≈ 0.0137 µM) | 0.000251 (≈ 0.00023 µM) | 8.04
